In patent publication US20150265633A1, “STEROID CONTAINING DRUG DELIVERY SYSTEM” (Allergan, Inc., priority 2007, published 2015):
≈ marks a conversion by molar mass, not a printed value.

Key:
physchem = assay: physchem
From the text: Log P is the lipophilicity coefficient, where P is the octonol/water partition coefficient.

cystic macular edema = assay: Treatment of macular edema with a solid GD implant (Example 4); assay type: in vivo, human
Method: A person diagnosed with cystic macular edema treated by administration of a biodegradable drug delivery system administered to each eye of the patient. […] A similar implant is administered subconjunctivally to the patient's right eye. […] No increase in intraocular pressure is seen one week after administration.

[1] = system: VEGF-induced BRB and BAB breakdown in rabbit eye; assay: Rabbit model of VEGF-induced BRB and BAB breakdown, scanning ocular fluorophotometry, aqueous steroid suspensions (Example 1); assay type: in vivo; details: for inhibition of VEGF-induced BAB breakdown (iris leakage, anterior segment) / inhibition of VEGF-induced BRB breakdown (retinal leakage, posterior segment): 1 mg (100 μl of 10 mg/ml suspension) intravitreal, VEGF one month thereafter, fluorophotometry 48 hrs after VEGF; for block of VEGF-induced BAB breakdown (iris leakage) / block of VEGF-induced BRB breakdown (retinal leakage): rabbit, corticosteroid administered systemically or intravitreally
Method: An in vivo (rabbit eye) experiment was carried out with liquid glucocorticoid derivative formulations. Recombinant vascular endothelial growth factor (VEGF) was obtained from a supplier (R&D Systems). Female Dutch Belt rabbits were anaesthetized with isoflurane inhalation and topical 0.5% proparacaine hydrochloride, and intravitreal injection of one eye with 500 ng VEGF in sterile phosphate buffered saline (PBS) containing 0.1% bovine serum albumin was performed using a 28 gauge ½ inch needle. The other eye is given the same volume of the vehicle, without the VEGF.
The extent of VEGF-induced BRB and BAB breakdown of the blood retinal barrier and the blood aqueous barrier was measured by scanning ocular fluorophotemetry (Fluorotron Master, Ocumetrics Inc.); at various times following intravitreal injection. In this model a fluorescent label is administered intravenously, following by determination of the amount of fluorescenin in the anterior and posterior segment and an indication of iridial and retinal leakage, respectively.
VEGF injection mimics this pathological condition.
Sodium fluorescein in 1 ml saline was injected via the marginal ear vein at a concentration of 50 mg/kg, and ocular fluorescein levels in the vitreoretinal chamber and the anterior chamber was determined 50 minutes later.
Ten milligrams of each compound is added to 1 ml of sterile phosphate-buffered saline (PBS; ph 7.4). At day 0, 100 μl of a 10 mg/ml suspension of each steroid is injected into the vitreous of a rabbit eye. The PBS vehicle is injected into the other eye. VEGF is then injected at a pre-determined time (one month) thereafter, and BRB and BAB breakdown were measured by scanning ocular fluorophotometry 48 hrs later as described in Edelman et al., EXP.

Water solubility = assay type: physicochemical
[2] = system: wet age-related macular degeneration; assay: Treatment of ARMD with a viscous GD formulation (Example 5); assay type: in vivo, human; details: intravitreal 100 μl hyaluronic acid solution with about 1000 μg crystals in suspension
Method: A person with wet age-related macular degeneration is treated with an intravitreal injection of 100 μl of a hyaluronic acid solution containing about 1000 μg of fluticasone propionate crystals in suspension.

[3] = after about 3 months from the surgery, 2 mg PLGA implant with about 1000 μg drug
[4] = 500 ng VEGF intravitreal, 48 hours after injection, 50 minutes after fluorescein

With `CCC(=O)OCC(=O)[C@@]1(OC(=O)CC)[C@@H](C)C[C@H]2[C@@H]3CCC4=CC(=O)C=C[C@]4(C)[C@@]3(Cl)[C@@H](O)C[C@@]21C` [Beclomethasone dipropionate, beclomethasone 17,21-dipropionate] the “Lipophicity (log P)” value (physchem) was 4.40, the logP (physchem) was 4.4 and the “appearance of the retina” value (cystic macular edema; [3]) was “appears normal”. For the same molecule, the “degeneration of the optic nerve” value (cystic macular edema; [3]) was “appears to be reduced”, the “increase in intraocular pressure” value (cystic macular edema; one week after administration, 2 mg PLGA implant with about 1000 μg drug) was “No increase” and the “reduction in retinal thickness” value (cystic macular edema; right eye (implant subconjunctival) versus left eye (intravitreal), 2 mg implant, about 1000 μg PLGA and about 1000 μg drug) was “more rapid reduction”. The “inhibition of VEGF-induced BAB breakdown (iris leakage, anterior segment)” value (“inhibition of VEGF-induced BAB breakdown” for short) ([1]; rabbit eye) was “no effect”, the “inhibition of VEGF-induced BRB breakdown (retinal leakage, posterior segment)” value (“inhibition of VEGF-induced BRB breakdown” for short) ([1]; rabbit eye) was “completely blocks” and the “duration of complete inhibition of VEGF-mediated responses” value ([1]; rabbit eye, 100 μl of 10 mg/ml intravitreal) was “greater than 3 months”.
For `C[C@@H]1C[C@H]2[C@@H]3CCC4=CC(=O)C=C[C@]4(C)[C@@]3(F)[C@@H](O)C[C@]2(C)[C@@]1(O)C(=O)CO` [Dexamethasone], the “Lipophicity (log P)” value (physchem) was 1.95 and the logP (physchem) was 1.95.
With `CCC(=O)O[C@]1(C(=O)SCF)[C@H](C)C[C@H]2[C@@H]3C[C@H](F)C4=CC(=O)C=C[C@]4(C)[C@@]3(F)[C@@H](O)C[C@@]21C` [Fluticasone propionate] the solubility (Water solubility; water) was 0.14 µg/mL (≈ 0.28 µM), the “Lipophicity (log P)” value (physchem) was 4.20 and the logP (physchem) was 4.2. For the same molecule, the “quality of life reported by patient” value [2] was “overall improvement”, the “rate of neovascularization and related inflammation” value ([2]; within one month) was “acceptable reduction” and the “inhibition of VEGF-induced BAB breakdown” value ([1]; rabbit eye) was “no effect”. The “inhibition of VEGF-induced BRB breakdown” value ([1]; rabbit eye) was “completely blocks”.
In the case of `CC1(C)O[C@@H]2C[C@H]3[C@@H]4CCC5=CC(=O)C=C[C@]5(C)[C@@]4(F)[C@@H](O)C[C@]3(C)[C@]2(C(=O)CO)O1` [Triamcinolone acetonide], the “Water Solubility” value (Water solubility) is reported as 21 µg/mL, the logP (physchem; octanol/water) is reported as 2.53 and the “inhibition of VEGF-induced BAB breakdown” value ([1]; rabbit eye) is reported as “completely inhibited”. For the same molecule, the “inhibition of VEGF-induced BRB breakdown” value ([1]; rabbit eye) was “completely inhibited”, the “block of VEGF-induced BAB breakdown (iris leakage)” value [1] was “completely blocked” and the “block of VEGF-induced BRB breakdown (retinal leakage)” value [1] was “completely blocked”.
With `C[C@H]1C[C@H]2[C@@H]3CCC4=CC(=O)C=C[C@]4(C)[C@@]3(Cl)[C@@H](O)C[C@]2(C)[C@@]1(O)C(=O)CO` [beclomethasone] the “inhibition of VEGF-induced BAB breakdown” value ([1]; rabbit eye) was “inhibited”, the “inhibition of VEGF-induced BRB breakdown” value ([1]; rabbit eye) was “inhibited” and the “block of VEGF-induced BAB breakdown (iris leakage)” value [1] was “completely blocked”. The “block of VEGF-induced BRB breakdown (retinal leakage)” value [1] was “completely blocked”.
For VEGF, the “increase in fluorescein contained in the aqueous (BAB breakdown) compared to normal untreated rabbit eyes” value [1, 4] was “approximately 6 fold” and the “increase in fluorescein contained in the vitreous (BRB breakdown) compared to normal untreated rabbit eyes” value [1, 4] was “approximately 18 fold”.
